From patent US20100210539A1, “USE OF PEPTIDE LL-37 AS A THERAPEUTIC AGENT” (priority 2007, published 2010)

How the values were obtained:
[1] = tested on: Methicillin Resistant Staphylococcus Aureus (MRSA); conditions: 5 micrograms per ml
Pseudomonas aeruginosa = conditions: 5 micrograms per ml
Streptococcus pneumoniae = conditions: 5 micrograms per ml
in vitro [2] = conditions: human, CEM-SS cells
in vitro [3] = conditions: human
[4] = Cytotoxicity in MRC-5 cells (CellTiter 96); conditions: human, MRC-5 cells (embryonal lung fibroblasts)
MRC-5 cells = conditions: human, 6 days
[5] = tested on: HCMV strain AD169 in MRC-5 cells; experiment: HCMV plaque reduction assay; conditions: HCMV AD169 in MRC-5 cells; peptide 10 micrograms per ml; 7-10 days
[6] = tested on: HIV-1IIIB in CEM-SS cells; experiment: HIV-1 antiviral assay, CPE reduction (MTS); conditions: peptide 10 micrograms per ml, 6 days post-infection
HepG2-2.2.15 cells = conditions: peptide 10 micrograms per ml, dye uptake assay
CEM-SS cells = conditions: peptide 10 micrograms per ml, MTS

SMILES: CC[C@H](C)[C@H](NC(=O)[C@H](CCCCN)NC(=O)[C@H](CCC(=O)O)NC(=O)[C@H](CCCCN)NC(=O)[C@H](CO)NC(=O)[C@H](CCCCN)NC(=O)[C@H](CCCNC(=N)N)NC(=O)[C@H](Cc1ccccc1)NC(=O)[C@H](Cc1ccccc1)NC(=O)[C@H](CC(=O)O)NC(=O)CNC(=O)[C@H](CC(C)C)NC(=O)[C@@H](N)CC(C)C)C(=O)NCC(=O)N[C@@H](CCCCN)C(=O)N[C@@H](CCC(=O)O)C(=O)N[C@@H](Cc1ccccc1)C(=O)N[C@@H](CCCCN)C(=O)N[C@@H](CCCNC(=N)N)C(=O)N[C@H](C(=O)N[C@H](C(=O)N[C@@H](CCC(N)=O)C(=O)N[C@@H](CCCNC(=N)N)C(=O)N[C@H](C(=O)N[C@@H](CCCCN)C(=O)N[C@@H](CC(=O)O)C(=O)N[C@@H](Cc1ccccc1)C(=O)N[C@@H](CC(C)C)C(=O)N[C@@H](CCCNC(=N)N)C(=O)N[C@@H](CC(N)=O)C(=O)N[C@@H](CC(C)C)C(=O)N[C@H](C(=O)N1CCC[C@H]1C(=O)N[C@@H](CCCNC(=N)N)C(=O)N[C@H](C(=O)N[C@@H](CCC(=O)O)C(=O)N[C@@H](CO)C(N)=O)[C@@H](C)O)C(C)C)[C@@H](C)CC)C(C)C)[C@@H](C)CC [LL-37]
- % inhibition [1]: 0.0%
- % inhibition (Pseudomonas aeruginosa): 0.0%
- % inhibition (Streptococcus pneumoniae): 0.0%
- viability at 10 micrograms per ml (in vitro [2]): 86.4%
- viability at 144 h, 10 micrograms per ml (in vitro [3]): 100%
- viability at 144 h [4]: 100%

SMILES: Nc1nc(O)c2ncn(COC(CO)CO)c2n1 [Ganciclovir]
- % Cell viability (MRC-5 cells): 100%
- % plaque reduction [5]: 100%

SMILES: CC(C)(C)NC(=O)[C@@H]1CN(Cc2cccnc2)CCN1C[C@@H](O)C[C@@H](Cc1ccccc1)C(=O)N[C@H]1c2ccccc2C[C@H]1O [Indinavir]
- % CPE reduction in HIV-1 infected CEM-SS cells [6]: 100%

SMILES: Nc1ccn([C@@H]2CS[C@H](CO)O2)c(=O)n1 [3TC, Lamivudine]
- % Cell viability (HepG2-2.2.15 cells): 95.8%

SMILES: Cc1cn([C@H]2C[C@H](N=[N+]=[N-])[C@@H](CO)O2)c(=O)[nH]c1=O [AZT]
- % Cell viability (CEM-SS cells): 97%
- % CPE reduction in HIV-1 infected CEM-SS cells [6]: 99%
